Where a name gives a salt, the structure may show the parent alone.
What follows are compounds tested against GCN2 (Homo sapiens (Human), UniProt Q9P2K8) (assay: TR-FRET biochemical assay for inhibition of GCN2). Conditions: not given.
GCN2, sequence (Q9P2K8 whole entry): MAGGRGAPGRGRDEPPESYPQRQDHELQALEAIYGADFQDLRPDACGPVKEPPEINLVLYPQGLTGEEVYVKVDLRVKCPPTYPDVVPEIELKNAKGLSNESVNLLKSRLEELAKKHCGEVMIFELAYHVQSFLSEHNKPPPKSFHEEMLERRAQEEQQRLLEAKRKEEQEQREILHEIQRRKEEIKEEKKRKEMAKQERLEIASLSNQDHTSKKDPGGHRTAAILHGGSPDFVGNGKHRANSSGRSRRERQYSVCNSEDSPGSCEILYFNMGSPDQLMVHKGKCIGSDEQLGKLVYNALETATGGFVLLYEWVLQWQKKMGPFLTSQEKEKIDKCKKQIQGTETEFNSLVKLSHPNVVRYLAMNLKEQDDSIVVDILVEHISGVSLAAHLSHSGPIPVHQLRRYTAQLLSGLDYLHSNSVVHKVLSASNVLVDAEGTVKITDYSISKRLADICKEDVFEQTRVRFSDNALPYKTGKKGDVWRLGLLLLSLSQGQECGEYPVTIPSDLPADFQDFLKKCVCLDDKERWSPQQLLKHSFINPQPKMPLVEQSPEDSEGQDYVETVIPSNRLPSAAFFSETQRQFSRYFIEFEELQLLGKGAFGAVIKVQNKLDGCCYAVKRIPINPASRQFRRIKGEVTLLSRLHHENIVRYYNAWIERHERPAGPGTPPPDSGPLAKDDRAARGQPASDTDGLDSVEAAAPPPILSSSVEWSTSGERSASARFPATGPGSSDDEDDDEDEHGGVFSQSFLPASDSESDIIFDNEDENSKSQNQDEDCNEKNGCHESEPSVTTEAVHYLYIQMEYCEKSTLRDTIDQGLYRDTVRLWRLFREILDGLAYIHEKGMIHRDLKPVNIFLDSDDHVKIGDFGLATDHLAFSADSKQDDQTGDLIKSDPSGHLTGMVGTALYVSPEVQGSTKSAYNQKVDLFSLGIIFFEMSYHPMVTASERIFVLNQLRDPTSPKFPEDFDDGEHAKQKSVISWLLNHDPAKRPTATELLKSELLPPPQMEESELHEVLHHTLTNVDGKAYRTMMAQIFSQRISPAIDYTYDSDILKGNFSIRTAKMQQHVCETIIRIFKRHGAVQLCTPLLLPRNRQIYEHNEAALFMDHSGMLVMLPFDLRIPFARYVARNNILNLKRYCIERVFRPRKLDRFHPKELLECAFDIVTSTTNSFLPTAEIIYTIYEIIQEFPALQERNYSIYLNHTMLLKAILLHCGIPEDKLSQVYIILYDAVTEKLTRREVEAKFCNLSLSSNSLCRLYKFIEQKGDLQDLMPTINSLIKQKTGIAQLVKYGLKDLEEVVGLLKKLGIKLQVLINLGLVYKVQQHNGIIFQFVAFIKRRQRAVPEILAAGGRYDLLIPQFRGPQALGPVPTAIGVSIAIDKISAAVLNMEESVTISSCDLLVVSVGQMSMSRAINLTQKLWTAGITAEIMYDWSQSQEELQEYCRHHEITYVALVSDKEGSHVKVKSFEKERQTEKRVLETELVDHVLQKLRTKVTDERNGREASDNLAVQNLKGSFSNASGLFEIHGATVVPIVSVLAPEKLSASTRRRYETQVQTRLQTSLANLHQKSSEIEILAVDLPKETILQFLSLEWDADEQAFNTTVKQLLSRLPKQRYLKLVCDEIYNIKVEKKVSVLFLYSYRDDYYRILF
In the case of `CNC(=O)c1ncn2c1CC[C@H](c1c(F)ccc(NS(=O)(=O)c3cc(F)cnc3OC)c1Cl)C2` [Compound 152-1, (6R)-6-[2-chloro-6-fluoro-3-(5-fluoro-2-methoxypyridine-3-sulfonamido)phenyl]-N-methyl-5H,6H,7H,8H-imidazo[1,5-a]pyridine-1-carboxamide], the IC50 is reported as 50 to 500 nM.
`CNC(=O)c1ncn2c1CC[C@@H](c1c(F)ccc(NS(=O)(=O)c3cc(F)cnc3OC)c1Cl)C2` [Compound 152-2, (6S)-6-[2-chloro-6-fluoro-3-(5-fluoro-2-methoxypyridine-3-sulfonamido)phenyl]-N-methyl-5H,6H,7H,8H-imidazo[1,5-a]pyridine-1-carboxamide] showed an IC50 of 50 to 500 nM.
With `CNC(=O)c1ncn2c1CO[C@@H](c1c(F)ccc(NS(=O)(=O)c3cc(Cl)cnc3OC)c1F)C2` [Compound 154-1, (6S)-6-[3-(5-chloro-2-methoxypyridine-3-sulfonamido)-2,6-difluorophenyl]-N-methyl-5H,6H,8H-imidazo[4,3-c][1,4]oxazine-1-carboxamide] the IC50 was 50 to 500 nM.
Compound `CNC(=O)c1ncn2c1CO[C@H](c1c(F)ccc(NS(=O)(=O)c3cc(Cl)cnc3OC)c1F)C2` [Compound 154-2, (6R)-6-[3-(5-chloro-2-methoxypyridine-3-sulfonamido)-2,6-difluorophenyl]-N-methyl-5H,6H,8H-imidazo[4,3-c][1,4]oxazine-1-carboxamide hydrochloride] has an IC50 of 50 to 500 nM.
`CCOc1ncc(Cl)cc1S(=O)(=O)Nc1ccc(F)c(-c2cn3cnc(C(=O)NC)c3cn2)c1F` [Compound 167, 6-[3-(5-chloro-2-ethoxypyridine-3-sulfonamido)-2,6-difluorophenyl]-N-methylimidazo[1,5-a]pyrazine-1-carboxamide] showed an IC50 of 50 to 500 nM.
In the case of `CNC(=O)c1ncn2cc(-c3c(F)ccc(NS(=O)(=O)c4cc(Cl)cnc4OC(C)C)c3F)ncc12` [Compound 168, 6-[3-(5-chloro-2-isopropoxypyridine-3-sulfonamido)-2,6-difluorophenyl]-N-methylimidazo[1,5-a]pyrazine-1-carboxamide], the IC50 is reported as 50 to 500 nM.
`CNC(=O)c1ncn2cc(-c3c(F)ccc(NS(=O)(=O)c4cc(Cl)cnc4OC4CC4)c3F)ncc12` [Compound 169, 6-[3-(5-chloro-2-cyclopropoxypyridine-3-sulfonamido)-2,6-difluorophenyl]-N-methylimidazo[1,5-a]pyrazine-1-carboxamide] gave an IC50 of 50 to 500 nM.

Same assay, conditions: GCN2 2 nM, 100 nM GFP-eIF2a, 150 μM ATP, TR-FRET
With `COc1ncc(F)cc1S(=O)(=O)Nc1ccc(Cl)c(-c2cn3cnc(-c4ncc[nH]4)c3cn2)c1F` [Compound 142, N-[4-chloro-2-fluoro-3-[1-(1H-imidazol-2-yl)imidazo[1,5-a]pyrazin-6-yl]phenyl]-5-fluoro-2-methoxypyridine-3-sulfonamide] the IC50 was less than 50 nM.
In the case of `COc1ncc(Cl)cc1S(=O)(=O)Nc1ccc(F)c(-c2ccc3c(-c4nc(C)c(C)[nH]4)ncn3c2)c1F` [Compound 143, 5-chloro-N-(3-(1-(4,5-dimethyl-1H-imidazol-2-yl)imidazo[1,5-a]pyridin-6-yl)-2,4-difluorophenyl)-2-methoxypyridine-3-sulfonamide], the IC50 is reported as less than 50 nM.
Work on `COc1ncc(F)cc1S(=O)(=O)Nc1ccc(F)c(-c2ccc3c(-c4nc(C)c(C)[nH]4)ncn3c2)c1F` [Compound 144, N-(3-(1-(4,5-dimethyl-1H-imidazol-2-yl)imidazo[1,5-a]pyridin-6-yl)-2,4-difluorophenyl)-5-fluoro-2-methoxypyridine-3-sulfonamide] yielded an IC50 of less than 50 nM.
`Cc1ncc(F)cc1S(=O)(=O)Nc1ccc(F)c(-c2ccc3c(-c4nc(C)c(C)[nH]4)ncn3c2)c1F` [Compound 145, N-(3-(1-(4,5-dimethyl-1H-imidazol-2-yl)imidazo[1,5-a]pyridin-6-yl)-2,4-difluorophenyl)-5-fluoro-2-methylpyridine-3-sulfonamide] gave an IC50 of less than 50 nM.
With `Cc1ncc(Cl)cc1S(=O)(=O)Nc1ccc(F)c(-c2ccc3c(-c4nc(C)c(C)[nH]4)ncn3c2)c1F` [Compound 146, 5-chloro-N-(3-(1-(4,5-dimethyl-1H-imidazol-2-yl)imidazo[1,5-a]pyridin-6-yl)-2,4-difluorophenyl)-2-methylpyridine-3-sulfonamide] the IC50 was less than 50 nM.
`COc1ncc(Cl)cc1S(=O)(=O)Nc1ccc(F)c(-c2ccc3c(-c4nc5c([nH]4)CCCC5)ncn3c2)c1F` [Compound 147, 5-chloro-N-(2,4-difluoro-3-(1-(4,5,6,7-tetrahydro-1H-benzo[d]imidazol-2-yl)imidazo[1,5-a]pyridin-6-yl)phenyl)-2-methoxypyridine-3-sulfonamide] was tested, and the IC50 was less than 50 nM.
`COc1ncc(F)cc1S(=O)(=O)Nc1ccc(F)c(-c2ccc3c(-c4nc5c([nH]4)CCCC5)ncn3c2)c1F` [Compound 148, N-(2,4-difluoro-3-(1-(4,5,6,7-tetrahydro-1H-benzo[d]imidazol-2-yl)imidazo[1,5-a]pyridin-6-yl)phenyl)-5-fluoro-2-methoxypyridine-3-sulfonamide] showed an IC50 of less than 50 nM.
Compound `Cc1ncc(F)cc1S(=O)(=O)Nc1ccc(F)c(-c2ccc3c(-c4nc5c([nH]4)CCCC5)ncn3c2)c1F` [Compound 149, N-(2,4-difluoro-3-(1-(4,5,6,7-tetrahydro-1H-benzo[d]imidazol-2-yl)imidazo[1,5-a]pyridin-6-yl)phenyl)-5-fluoro-2-methylpyridine-3-sulfonamide] has an IC50 of less than 50 nM.
Work on `Cc1ncc(Cl)cc1S(=O)(=O)Nc1ccc(F)c(-c2ccc3c(-c4nc5c([nH]4)CCCC5)ncn3c2)c1F` [Compound 150, 5-chloro-N-(2,4-difluoro-3-(1-(4,5,6,7-tetrahydro-1H-benzo[d]imidazol-2-yl)imidazo[1,5-a]pyridin-6-yl)phenyl)-2-methylpyridine-3-sulfonamide] yielded an IC50 of less than 50 nM.
Compound `COc1ncc(F)cc1S(=O)(=O)Nc1ccc(F)c(-c2cn3cnc(-c4ncc[nH]4)c3cn2)c1Cl` [Compound 151, N-[2-chloro-4-fluoro-3-[1-(1H-imidazol-2-yl)imidazo[1,5-a]pyrazin-6-yl]phenyl]-5-fluoro-2-methoxypyridine-3-sulfonamide] has an IC50 of less than 50 nM.
`COC(=O)c1ccc2nc(-c3ncn4cc(-c5c(F)ccc(NS(=O)(=O)c6cc(F)cnc6OC)c5F)ncc34)[nH]c2c1` [Compound 153, methyl 2-[6-[2,6-difluoro-3-(5-fluoro-2-methoxypyridine-3-sulfonamido)phenyl]imidazo[1,5-a]pyrazin-1-yl]-3H-1,3-benzodiazole-5-carboxylate] showed an IC50 of less than 50 nM.
With `COc1ncc(F)cc1S(=O)(=O)Nc1ccc(F)c(-c2cn3cnc(-c4nc(-c5ccccc5)c[nH]4)c3cn2)c1F` [Compound 156, N-[2,4-difluoro-3-[1-(4-phenyl-1H-imidazol-2-yl)imidazo[1,5-a]pyrazin-6-yl]phenyl]-5-fluoro-2-methoxypyridine-3-sulfonamide] the IC50 was less than 50 nM.
Compound `COc1ncc(Cl)cc1S(=O)(=O)Nc1ccc(F)c(-c2cn3cnc(C(=O)NC(C)C)c3cn2)c1F` [Compound 157, 6-[3-(5-chloro-2-methoxypyridine-3-sulfonamido)-2,6-difluorophenyl]-N-isopropylimidazo[1,5-a]pyrazine-1-carboxamide] has an IC50 of less than 50 nM.
Compound `COc1ncc(Cl)cc1S(=O)(=O)Nc1ccc(F)c(-c2cn3cnc(C(=O)NCC(C)C)c3cn2)c1F` [Compound 158, 6-[3-(5-chloro-2-methoxypyridine-3-sulfonamido)-2,6-difluorophenyl]-N-(2-methylpropyl)imidazo[1,5-a]pyrazine-1-carboxamide] has an IC50 of less than 50 nM.
Work on `COc1ncc(Cl)cc1S(=O)(=O)Nc1ccc(F)c(-c2cn3cnc(C(=O)NCC(F)(F)F)c3cn2)c1F` [Compound 159, 6-[3-(5-chloro-2-methoxypyridine-3-sulfonamido)-2,6-difluorophenyl]-N-(2,2,2-trifluoroethyl)imidazo[1,5-a]pyrazine-1-carboxamide] yielded an IC50 of less than 50 nM.
Compound `CNC(=O)c1ncn2c(F)c(-c3c(F)ccc(NS(=O)(=O)c4cc(Cl)cnc4OC)c3F)ncc12` [Compound 160, 6-[3-(5-chloro-2-methoxypyridine-3-sulfonamido)-2,6-difluorophenyl]-5-fluoro-N-methylimidazo[1,5-a]pyrazine-1-carboxamide] has an IC50 of less than 50 nM.
`COc1ncc(Cl)cc1S(=O)(=O)Nc1ccc(F)c(-c2cn3cnc(C(=O)NCCO)c3cn2)c1F` [Compound 161, 6-[3-(5-chloro-2-methoxypyridine-3-sulfonamido)-2,6-difluorophenyl]-N-(2-hydroxyethyl)imidazo[1,5-a]pyrazine-1-carboxamide] showed an IC50 of less than 50 nM.
`COc1ncc(Cl)cc1S(=O)(=O)Nc1ccc(F)c(-c2cn3cnc(C(=O)Nc4cnn(C)c4)c3cn2)c1F` [Compound 162, 6-[3-(5-chloro-2-methoxypyridine-3-sulfonamido)-2,6-difluorophenyl]-N-(1-methylpyrazol-4-yl)imidazo[1,5-a]pyrazine-1-carboxamide] gave an IC50 of less than 50 nM.
With `COc1ncc(Cl)cc1S(=O)(=O)Nc1ccc(F)c(-c2cn3cnc(C(=O)NCC4CCOCC4)c3cn2)c1F` [Compound 163, 6-[3-(5-chloro-2-methoxypyridine-3-sulfonamido)-2,6-difluorophenyl]-N-(oxan-4-ylmethyl)imidazo[1,5-a]pyrazine-1-carboxamide] the IC50 was less than 50 nM.
Work on `COc1ncc(Cl)cc1S(=O)(=O)Nc1ccc(F)c(-c2cn3cnc(C(=O)NCCS(C)(=O)=O)c3cn2)c1F` [Compound 164, 6-[3-(5-chloro-2-methoxypyridine-3-sulfonamido)-2,6-difluorophenyl]-N-(2-methanesulfonylethyl)imidazo[1,5-a]pyrazine-1-carboxamide] yielded an IC50 of less than 50 nM.
`CCNC(=O)c1ncn2cc(-c3c(F)ccc(NS(=O)(=O)c4cc(Cl)cnc4OC)c3F)ncc12` [Compound 165, 6-[3-(5-chloro-2-methoxypyridine-3-sulfonamido)-2,6-difluorophenyl]-N-ethylimidazo[1,5-a]pyrazine-1-carboxamide] gave an IC50 of less than 50 nM.
`COc1ncc(Cl)cc1S(=O)(=O)Nc1ccc(F)c(-c2cn3cnc(C(=O)NCC4CC4)c3cn2)c1F` [Compound 166, 6-[3-(5-chloro-2-methoxypyridine-3-sulfonamido)-2,6-difluorophenyl]-N-(cyclopropylmethyl)imidazo[1,5-a]pyrazine-1-carboxamide] gave an IC50 of less than 50 nM.
